Source: patent US9029325B2, “Amylin analogues and pharmaceutical compositions thereof” (Novo Nordisk A/S, priority 2011, dated 2015)
Starred links: 1 amine or outer side, 2 acyl side, 3 side chain; linkers in the order of their positions; H or OH if unused. Positions of bridges follow the written chain, without caps; N, C: chain ends. Residues, ends and D or L forms follow the SMILES beside them. *: point of attachment. C20 diacid = O=C(O)CCCCCCCCCCCCCCCCCCC(=O)*; C18 diacid = O=C(O)CCCCCCCCCCCCCCCCC(=O)*; γGlu = O=C(O)[C@H](CCC(=O)[*:2])N[*:1]

Assay: Assay (I) efficacy testing on appetite (food intake), ad libitum fed rat model
Format: in vivo, Sprague Dawley (SD) rats
Excerpt: Sprague Dawley (SD) rats from Taconic Europe, Denmark are used for the experiments. The rats have a body weight 200-250 g at the start of experiment. The rats arrive at least 10-14 days before start of experiment to allow acclimatization to experimental settings. During this period the animals are handled at least 2 times. After arrival rats are housed individually for one week in a reversed light/dark phase (meaning that lights are off during daytime and on during nighttime) […]. Since rats are normally active and eat their major part of their daily food intake during the dark period, rats are dosed in the morning right before lights are turned off. This set-up results in the lowest data variation and highst test sensitivity. The experiment is conducted in the rats' home cages and rats have free access to food and water througout the acclimatization period and the experiment period. Each dose of derivative is tested in a group of 5-8 rats. A vehicle group of 6-8 rats is included in each set of testing. Rats are dosed once according to body weight with a 0.01-3 mg/kg solution administered intraperitoneally (ip), orally (po) or subcutaneously (sc). The time of dosing is recorded for each group. After dosing, the rats are returned to their home cages, where they then have access to food and water. The food consumption is recorded individually continuously by on-line registration or manually every hour for 7 hours, and then after 24 h and sometimes 48 h. At the end of the experimental session, the animals are euthanised.
The individual data are recorded in Microsoft excel sheets. Outliers are excluded after applying the Grubbs statistical evaluation test for outliers, and the result is presented graphically using the GraphPad Prism program.

CC[C@H](C)[C@H](NC(=O)[C@@H]1CCCN1C(=O)CNC(=O)[C@H](Cc1ccccc1)NC(=O)[C@H](CC(N)=O)NC(=O)[C@H](CC(N)=O)NC(=O)[C@H](CO)NC(=O)[C@H](CO)NC(=O)[C@H](Cc1c[nH]cn1)NC(=O)[C@H](CCCNC(=N)N)NC(=O)[C@H](CC(C)C)NC(=O)[C@H](Cc1ccccc1)NC(=O)[C@H](CCC(=O)O)NC(=O)[C@H](C)NC(=O)[C@H](CC(C)C)NC(=O)[C@H](CCCNC(=N)N)NC(=O)[C@H](CCC(N)=O)NC(=O)[C@@H](NC(=O)[C@H](C)NC(=O)[C@@H]1CSSC[C@H](NC(=O)[C@H](CCCCN)NC(=O)CC[C@H](NC(=O)CCCCCCCCCCCCCCCCCCC(=O)O)C(=O)O)C(=O)N[C@@H](CC(N)=O)C(=O)N[C@@H]([C@@H](C)O)C(=O)N[C@@H](C)C(=O)N[C@@H]([C@@H](C)O)C(=O)N1)[C@@H](C)O)C(=O)N[C@@H](CC(C)C)C(=O)N1CCC[C@H]1C(=O)N1CCC[C@H]1C(=O)N[C@H](C(=O)N[C@@H](CC(N)=O)C(=O)N[C@H](C(=O)NCC(=O)N[C@@H](CO)C(=O)N[C@@H](Cc1c[nH]cn1)C(=O)N[C@H](C(=O)N[C@@H](Cc1ccc(O)cc1)C(N)=O)[C@@H](C)O)C(C)C)[C@@H](C)O [Example 57, N-alpha-[(S)-4-Carboxy-4-(19-carboxynonadecanoylamino)butyryl]-[Glu14,Arg17,His35]-pramlintide] ({C20 diacid-γGlu}-KCNTATCATQRLAEFLRHSSNNFGPILPPTNVGSHTY-NH2; disulfide 2-7 (inferred); C-terminus assumed)
Food intake reduction 0-24 h 3 nmol/kg (%) (0-24 h): 17% | Food intake reduction 24-48 h 3 nmol/kg (%) (24-48 h): 0%

CC[C@H](C)[C@H](NC(=O)[C@@H]1CCCN1C(=O)CNC(=O)[C@H](Cc1ccccc1)NC(=O)[C@H](CC(N)=O)NC(=O)[C@H](CC(N)=O)NC(=O)[C@H](CO)NC(=O)[C@H](CO)NC(=O)[C@H](Cc1c[nH]cn1)NC(=O)[C@H](Cc1c[nH]cn1)NC(=O)[C@H](CC(C)C)NC(=O)[C@H](Cc1ccccc1)NC(=O)[C@H](CCC(=O)O)NC(=O)[C@H](C)NC(=O)[C@H](CC(C)C)NC(=O)[C@H](CCCNC(=N)N)NC(=O)[C@H](CCC(N)=O)NC(=O)[C@@H](NC(=O)[C@H](C)NC(=O)[C@@H]1CSSC[C@H](NC(=O)[C@H](CCCCN)NC(=O)CC[C@H](NC(=O)CCCCCCCCCCCCCCCCC(=O)O)C(=O)O)C(=O)N[C@@H](CC(N)=O)C(=O)N[C@@H]([C@@H](C)O)C(=O)N[C@@H](C)C(=O)N[C@@H]([C@@H](C)O)C(=O)N1)[C@@H](C)O)C(=O)N[C@@H](CC(C)C)C(=O)N1CCC[C@H]1C(=O)N1CCC[C@H]1C(=O)N[C@H](C(=O)N[C@@H](CC(N)=O)C(=O)N[C@H](C(=O)NCC(=O)N[C@@H](CO)C(=O)N[C@@H](Cc1c[nH]cn1)C(=O)N[C@H](C(=O)N[C@@H](Cc1ccc(O)cc1)C(N)=O)[C@@H](C)O)C(C)C)[C@@H](C)O [Example 59, N-alpha-[(S)-4-Carboxy-4-(17-carboxyheptadecanoylamino)butyryl]-[Glu14,His17,His 35]-pramlintide] ({C18 diacid-γGlu}-KCNTATCATQRLAEFLHHSSNNFGPILPPTNVGSHTY-NH2; disulfide 2-7 (inferred); C-terminus assumed)
Food intake reduction 0-24 h 3 nmol/kg (%) (0-24 h): 59% | Food intake reduction 24-48 h 3 nmol/kg (%) (24-48 h): 27%

CC[C@H](C)[C@H](NC(=O)[C@@H]1CCCN1C(=O)CNC(=O)[C@H](Cc1ccccc1)NC(=O)[C@H](CC(N)=O)NC(=O)[C@H](CC(N)=O)NC(=O)[C@H](CO)NC(=O)[C@H](CO)NC(=O)[C@H](Cc1c[nH]cn1)NC(=O)[C@H](Cc1c[nH]cn1)NC(=O)[C@H](CC(C)C)NC(=O)[C@H](Cc1ccccc1)NC(=O)[C@H](CCC(=O)O)NC(=O)[C@H](C)NC(=O)[C@H](CC(C)C)NC(=O)[C@H](CCCNC(=N)N)NC(=O)[C@H](CCC(N)=O)NC(=O)[C@@H](NC(=O)[C@H](C)NC(=O)[C@@H]1CSSC[C@H](NC(=O)[C@H](Cc2c[nH]cn2)NC(=O)CC[C@H](NC(=O)CCCCCCCCCCCCCCCCCCC(=O)O)C(=O)O)C(=O)N[C@@H](CC(N)=O)C(=O)N[C@@H]([C@@H](C)O)C(=O)N[C@@H](C)C(=O)N[C@@H]([C@@H](C)O)C(=O)N1)[C@@H](C)O)C(=O)N[C@@H](CC(C)C)C(=O)N1CCC[C@H]1C(=O)N1CCC[C@H]1C(=O)N[C@H](C(=O)N[C@@H](CC(N)=O)C(=O)N[C@H](C(=O)NCC(=O)N[C@@H](CO)C(=O)N[C@@H](CC(N)=O)C(=O)N[C@H](C(=O)N1CCC[C@H]1C(N)=O)[C@@H](C)O)C(C)C)[C@@H](C)O [Example 84, N-alpha-[(S)-4-Carboxy-4-(19-carboxynonadecanoylamino)butyryl]-[His1, Glu14, His17, Pro37]-pramlintide] ({C20 diacid-γGlu}-HCNTATCATQRLAEFLHHSSNNFGPILPPTNVGSNTP-NH2; disulfide 2-7)
Food intake reduction 0-24 h 3 nmol/kg (%) (0-24 h): 68% | Food intake reduction 24-48 h 3 nmol/kg (%) (24-48 h): 67%

CC[C@H](C)[C@H](NC(=O)[C@@H]1CCCN1C(=O)CNC(=O)[C@H](Cc1ccccc1)NC(=O)[C@H](CC(N)=O)NC(=O)[C@H](CC(N)=O)NC(=O)[C@H](CO)NC(=O)[C@H](CO)NC(=O)[C@H](CCCNC(=N)N)NC(=O)[C@H](Cc1c[nH]cn1)NC(=O)[C@H](CC(C)C)NC(=O)[C@H](Cc1ccccc1)NC(=O)[C@H](CCC(=O)O)NC(=O)[C@H](C)NC(=O)[C@H](CC(C)C)NC(=O)[C@H](CCCNC(=N)N)NC(=O)[C@H](CCC(N)=O)NC(=O)[C@@H](NC(=O)[C@H](C)NC(=O)[C@@H]1CSSC[C@H](NC(=O)[C@H](Cc2c[nH]cn2)NC(=O)CC[C@H](NC(=O)CCCCCCCCCCCCCCCCCCC(=O)O)C(=O)O)C(=O)N[C@@H](CC(N)=O)C(=O)N[C@@H]([C@@H](C)O)C(=O)N[C@@H](C)C(=O)N[C@@H]([C@@H](C)O)C(=O)N1)[C@@H](C)O)C(=O)N[C@@H](CC(C)C)C(=O)N1CCC[C@H]1C(=O)N1CCC[C@H]1C(=O)N[C@H](C(=O)N[C@@H](CC(N)=O)C(=O)N[C@H](C(=O)NCC(=O)N[C@@H](CO)C(=O)N[C@@H](CC(N)=O)C(=O)N[C@H](C(=O)N[C@@H](Cc1ccc(O)cc1)C(N)=O)[C@@H](C)O)C(C)C)[C@@H](C)O [compound 1] ({C20 diacid-γGlu}-HCNTATCATQRLAEFLHRSSNNFGPILPPTNVGSNTY-NH2; disulfide 2-7)
Food intake reduction 0-24 h 3 nmol/kg (%) (0-24 h): 50% | Food intake reduction 24-48 h 3 nmol/kg (%) (24-48 h): 45% | Food intake reduction 0-24 h 30 nmol/kg (%) (30 nmol/kg, 0-24 h): 93% | Food intake reduction 24-48 h 30 nmol/kg (%) (30 nmol/kg, 24-48 h): 92%

CC[C@H](C)[C@H](NC(=O)[C@@H]1CCCN1C(=O)CNC(=O)[C@H](Cc1ccccc1)NC(=O)[C@H](CC(N)=O)NC(=O)[C@H](CC(N)=O)NC(=O)[C@H](CO)NC(=O)[C@H](CO)NC(=O)[C@H](CCCNC(=N)N)NC(=O)[C@H](Cc1c[nH]cn1)NC(=O)[C@H](CC(C)C)NC(=O)[C@H](Cc1ccccc1)NC(=O)[C@H](CCC(=O)O)NC(=O)[C@H](C)NC(=O)[C@H](CC(C)C)NC(=O)[C@H](CCCNC(=N)N)NC(=O)[C@H](CCC(N)=O)NC(=O)[C@@H](NC(=O)[C@H](C)NC(=O)[C@@H]1CSSC[C@H](NC(=O)CC[C@H](NC(=O)CCCCCCCCCCCCCCCCCCC(=O)O)C(=O)O)C(=O)NCC(=O)N[C@@H]([C@@H](C)O)C(=O)N[C@@H](C)C(=O)N[C@@H]([C@@H](C)O)C(=O)N1)[C@@H](C)O)C(=O)N[C@@H](CC(C)C)C(=O)N1CCC[C@H]1C(=O)N1CCC[C@H]1C(=O)N[C@H](C(=O)N[C@@H](CCC(=O)O)C(=O)N[C@H](C(=O)NCC(=O)N[C@@H](CO)C(=O)NCC(=O)N[C@H](C(=O)N[C@@H](Cc1ccc(O)cc1)C(N)=O)[C@@H](C)O)C(C)C)[C@@H](C)O [compound 3] ({C20 diacid-γGlu}-CGTATCATQRLAEFLHRSSNNFGPILPPTEVGSGTY-NH2; disulfide 1-6 (inferred); C-terminus assumed)
Food intake reduction 0-24 h 3 nmol/kg (%) (0-24 h): 37% | Food intake reduction 24-48 h 3 nmol/kg (%) (24-48 h): 32%

CC[C@H](C)[C@H](NC(=O)[C@H](CCC(=O)O)NC(=O)CNC(=O)[C@H](Cc1ccccc1)NC(=O)[C@H](CC(N)=O)NC(=O)[C@H](CC(N)=O)NC(=O)[C@H](CO)NC(=O)[C@H](CO)NC(=O)[C@H](CCCNC(=N)N)NC(=O)[C@H](Cc1c[nH]cn1)NC(=O)[C@H](CC(C)C)NC(=O)[C@H](Cc1ccccc1)NC(=O)[C@H](CCC(=O)O)NC(=O)[C@H](C)NC(=O)[C@H](CC(C)C)NC(=O)[C@H](CCCNC(=N)N)NC(=O)[C@H](CCC(N)=O)NC(=O)[C@@H](NC(=O)[C@H](C)NC(=O)[C@@H]1CSSC[C@H](NC(=O)[C@H](Cc2c[nH]cn2)NC(=O)CC[C@H](NC(=O)CCCCCCCCCCCCCCCCCCC(=O)O)C(=O)O)C(=O)N[C@@H](CC(N)=O)C(=O)N[C@@H]([C@@H](C)O)C(=O)N[C@@H](C)C(=O)N[C@@H]([C@@H](C)O)C(=O)N1)[C@@H](C)O)C(=O)N[C@@H](CC(C)C)C(=O)N[C@@H](CO)C(=O)N[C@@H](CCCNC(=N)N)C(=O)N[C@H](C(=O)N[C@@H](CC(N)=O)C(=O)N[C@H](C(=O)NCC(=O)N[C@@H](CO)C(=O)N[C@@H](CC(N)=O)C(=O)N[C@H](C(=O)N[C@@H](Cc1ccc(O)cc1)C(N)=O)[C@@H](C)O)C(C)C)[C@@H](C)O [compound 7] ({C20 diacid-γGlu}-HCNTATCATQRLAEFLHRSSNNFGEILSRTNVGSNTY-NH2; disulfide 2-7 (inferred); C-terminus assumed)
Food intake reduction 0-24 h 3 nmol/kg (%) (0-24 h): 53% | Food intake reduction 24-48 h 3 nmol/kg (%) (24-48 h): 46%
